Source: patent US20130190309A1, “PHTHALAZINONE AND RELATED ANALOGS AS SIRTUIN MODULATORS” (priority 2009, published 2013)

Molecular target: T1, SIRT1 (Homo sapiens, UniProt Q96EB6)
T1 sequence (Q96EB6 1-747): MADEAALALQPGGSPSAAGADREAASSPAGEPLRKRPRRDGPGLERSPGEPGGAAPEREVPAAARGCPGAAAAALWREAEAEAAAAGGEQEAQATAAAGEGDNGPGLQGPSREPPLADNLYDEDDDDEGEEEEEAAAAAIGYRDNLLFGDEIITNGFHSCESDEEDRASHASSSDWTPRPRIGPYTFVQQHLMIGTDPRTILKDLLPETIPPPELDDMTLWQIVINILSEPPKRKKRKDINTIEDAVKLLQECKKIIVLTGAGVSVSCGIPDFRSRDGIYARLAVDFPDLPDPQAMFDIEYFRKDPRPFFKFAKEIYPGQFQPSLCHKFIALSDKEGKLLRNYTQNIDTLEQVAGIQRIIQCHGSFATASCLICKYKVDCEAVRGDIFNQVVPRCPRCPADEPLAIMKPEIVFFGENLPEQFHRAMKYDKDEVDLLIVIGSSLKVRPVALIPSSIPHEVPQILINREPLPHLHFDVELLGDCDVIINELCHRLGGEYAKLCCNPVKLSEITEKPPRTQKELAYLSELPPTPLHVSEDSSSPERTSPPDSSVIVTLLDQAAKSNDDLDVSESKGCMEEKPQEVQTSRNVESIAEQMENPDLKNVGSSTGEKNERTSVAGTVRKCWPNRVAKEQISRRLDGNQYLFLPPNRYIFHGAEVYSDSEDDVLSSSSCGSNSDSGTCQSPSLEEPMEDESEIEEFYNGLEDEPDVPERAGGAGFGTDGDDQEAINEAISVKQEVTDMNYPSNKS
Experiment: Mass spectrometry based SIRT1 deacetylase activation assay
Type: biochemical
Conditions: for Emax: 25 min, percent maximum fold activation of SIRT1, read-out: SIRT1 % FOLD ACT.; for EC1.5 (concentration giving 150% activation): concentration of test compound that results in 150% activation of SIRT1
Description: A mass spectrometry based assay was used to identify modulators of SIRT1 activity. The mass spectrometry based assay utilizes a peptide having 20 amino acid residues as follows: Ac-EE-K(biotin)-GQSTSSHSK(Ac)NleSTEG-K(5TMR)-EE-NH2 (SEQ ID NO: 1) wherein K(Ac) is an acetylated lysine residue and Nle is a norleucine. The peptide is labeled with the fluorophore 5TMR (excitation 540 nm/emission 580 nm) at the C-terminus. The sequence of the peptide substrate is based on p53 with several modifications. In addition, the methionine residue naturally present in the sequence was replaced with the norleucine because the methionine may be susceptible to oxidation during synthesis and purification.
The mass spectrometry assay is conducted as follows: 0.5 μM peptide substrate and 120 μM βNAD^+ is incubated with 10 nM SIRT1 for 25 minutes at 25° C. in a reaction buffer (50 mM Tris-acetate pH 8, 137 mM NaCl, 2.7 mM KCl, 1 mM MgCl2, 5 mM DTT, 0.05% BSA). Test compounds may be added to the reaction as described above. The SirT1 gene is cloned into a T7-promoter containing vector and transformed into BL21(DE3). After the 25 minute incubation with SIRT1, 10 μL of 10% formic acid is added to stop the reaction. Reactions are sealed and frozen for later mass spec analysis. Determination of the mass of the substrate peptide allows for precise determination of the degree of acetylation (i.e. starting material) as compared to deacetylated peptide (product).
A control for inhibition of sirtuin activity is conducted by adding 1 μL of 500 mM nicotinamide as a negative control at the start of the reaction (e.g., permits determination of maximum sirtuin inhibition). A control for activation of sirtuin activity is conducted using 10 nM of sirtuin protein, with 1 μL of DMSO in place of compound, to determine the amount of deacetylation of the substrate at a given timepoint within the linear range of the assay. This timepoint is the same as that used for test compounds and, within the linear range, the endpoint represents a change in velocity.
For the above assay, SIRT1 protein was expressed and purified as follows. The SirT1 gene was cloned into a T7-promoter containing vector and transformed into BL21(DE3). The protein was expressed by induction with 1 mM IPTG as an N-terminal His-tag fusion protein at 18° C. overnight and harvested at 30,000×g. Cells were lysed with lysozyme in lysis buffer (50 mM Tris-HCl, 2 mM Tris[2-carboxyethyl]phosphine (TCEP), 10 μM ZnCl2, 200 mM NaCl) and further treated with sonication for 10 min for complete lysis. The protein was purified over a Ni-NTA column (Amersham) and fractions containing pure protein were pooled, concentrated and run over a sizing column (Sephadex S200 26/60 global). The peak containing soluble protein was collected and run on an Ion-exchange column (MonoQ). Gradient elution (200 mM-500 mM NaCl) yielded pure protein. This protein was concentrated and dialyzed against dialysis buffer (20 mM Tris-HCl, 2 mM TCEP) overnight. The protein was aliquoted and frozen at −80° C. until further use.
Sirtuin modulating compounds that activated SIRT1 were identified using the assay described above and are shown below in Table 1. The EC1.5 values represent the concentration of test compounds that result in 150% activation of SIRT1. The EC1.5 values for the activating compounds are represented by A (EC1.5 <5 μM), B (EC1.5 5-50 μM), or C (EC1.5 >50 μM). The percent maximum fold activation is represented by A (Fold activation >150%) or B (Fold Activation <150%).

Emax [%] | EC1.5 (concentration giving 150% activation) [µM] | SMILES
> 150 | 5 to 50 | O=C(Nc1cccc2c1C(=O)N(c1cccc(C(F)(F)F)c1)CC2)c1cscn1 [Compound 100]
> 150 | 5 to 50 | O=C(Nc1cccc2c1C(=O)N(c1cccc(C(F)(F)F)c1)CC2)c1cnccn1 [Compound 101, N-(1-oxo-2-(3-(trifluoromethyl)phenyl)-1,2,3,4-tetrahydroisoquinolin-8-yl)pyrazine-2-carboxamide]
< 150 | < 5 | O=C(Nc1cccc2cnn(-c3cccc(C(F)(F)F)c3)c(=O)c12)c1cscn1 [Compound 102]
> 150 | 5 to 50 | O=C(Nc1cccc2cnn(-c3cccc(C(F)(F)F)c3)c(=O)c12)c1cnccn1 [Compound 103, N-(4-oxo-3-(3-(trifluoromethyl)phenyl)-3,4-dihydrophthalazin-5-yl)pyrazine-2-carboxamide]
– | > 50 | O=C(Nc1cccc2cnn(-c3cccc(C(F)(F)F)c3)c(=O)c12)C1CCOCC1 [Compound 104]
> 150 | < 5 | O=C(Nc1cccc2cnn(-c3cccc(C(F)(F)F)c3)c(=O)c12)c1cccc(OCC(O)CO)n1 (centres unmarked) [Compound 105, 6-(2,3-dihydroxypropoxy)-N-(4-oxo-3-(3-(trifluoromethyl)phenyl)-3,4-dihydrophthalazin-5-yl)picolinamide]
> 150 | < 5 | O=C(Nc1cccc2cnn(-c3cccc(C(F)(F)F)c3)c(=O)c12)c1cccc(CN2CCOCC2)n1 [Compound 106, 6-(morpholinomethyl)-N-(4-oxo-3-(3-(trifluoromethyl)phenyl)-3,4-dihydrophthalazin-5-yl)picolinamide]
> 150 | < 5 | O=C(Nc1cccc2cnn(-c3cccc(OC(F)(F)F)c3)c(=O)c12)c1cccc(OCC(O)CO)n1 (centres unmarked) [Compound 107, 6-(2,3-dihydroxypropoxy)-N-(4-oxo-3-(3-(trifluoromethoxy)phenyl)-3,4-dihydrophthalazin-5-yl)picolinamide]
> 150 | < 5 | O=C(Nc1cccc2cnn(-c3cccc(OC(F)(F)F)c3)c(=O)c12)c1cccc(CN2CCOCC2)n1 [Compound 108, 6-(morpholinomethyl)-N-(4-oxo-3-(3-(trifluoromethoxy)phenyl)-3,4-dihydrophthalazin-5-yl)picolinamide]
